# According to ChEMBL document CHEMBL5584237, “Design, synthesis, biological evaluation, and in silico studies of novel pyridopyridine derivatives as anticancer candidates targeting FMS kinase” (Eur J Med Chem, 2024):
# Active and inactive are the calls of the source. No cut-off for these calls is given here.
# Legend:
# COLO 205 = assay: Antiproliferative activity against human COLO 205 cells assessed as cell growth inhibition; type: functional
# [1] = Selectivity index, ratio of IC50 for human WI-38 cells to IC50 for human K562 cells; type: toxicity; settings: WI-38 cells and K562 cells, read-out: Ratio IC50
# Hep 3B2 [2] = assay: Induction of apoptosis in human Hep3B cells assessed as increase in cleaved PARP expression at 3.38 uM measured after 48 hrs by Western blot analysis relative to control; type: functional
# [3] = Selectivity index, ratio of IC50 for human WI-38 cells to IC50 for human CAKI-1 cells
# HT-29 = assay: Antiproliferative activity against human HT-29 cells assessed as cell growth inhibition; type: functional
# [4] = Selectivity index, ratio of IC50 for human WI-38 cells to IC50 for human SF-539 cells
# [5] = Selectivity index, ratio of IC50 for human HS27 cells to IC50 for human PC-3 cells
# [6] = target: Macrophage colony-stimulating factor 1 receptor (Homo sapiens, UniProt P07333); assay: Inhibition of FMS (unknown origin) using myelin basic protein as substrate measured after 40 mins in presence of [gamma-33P]-ATP by scintillation counting method; settings: read-out: IC50
# Sequence of Macrophage colony-stimulating factor 1 receptor (P07333 whole entry): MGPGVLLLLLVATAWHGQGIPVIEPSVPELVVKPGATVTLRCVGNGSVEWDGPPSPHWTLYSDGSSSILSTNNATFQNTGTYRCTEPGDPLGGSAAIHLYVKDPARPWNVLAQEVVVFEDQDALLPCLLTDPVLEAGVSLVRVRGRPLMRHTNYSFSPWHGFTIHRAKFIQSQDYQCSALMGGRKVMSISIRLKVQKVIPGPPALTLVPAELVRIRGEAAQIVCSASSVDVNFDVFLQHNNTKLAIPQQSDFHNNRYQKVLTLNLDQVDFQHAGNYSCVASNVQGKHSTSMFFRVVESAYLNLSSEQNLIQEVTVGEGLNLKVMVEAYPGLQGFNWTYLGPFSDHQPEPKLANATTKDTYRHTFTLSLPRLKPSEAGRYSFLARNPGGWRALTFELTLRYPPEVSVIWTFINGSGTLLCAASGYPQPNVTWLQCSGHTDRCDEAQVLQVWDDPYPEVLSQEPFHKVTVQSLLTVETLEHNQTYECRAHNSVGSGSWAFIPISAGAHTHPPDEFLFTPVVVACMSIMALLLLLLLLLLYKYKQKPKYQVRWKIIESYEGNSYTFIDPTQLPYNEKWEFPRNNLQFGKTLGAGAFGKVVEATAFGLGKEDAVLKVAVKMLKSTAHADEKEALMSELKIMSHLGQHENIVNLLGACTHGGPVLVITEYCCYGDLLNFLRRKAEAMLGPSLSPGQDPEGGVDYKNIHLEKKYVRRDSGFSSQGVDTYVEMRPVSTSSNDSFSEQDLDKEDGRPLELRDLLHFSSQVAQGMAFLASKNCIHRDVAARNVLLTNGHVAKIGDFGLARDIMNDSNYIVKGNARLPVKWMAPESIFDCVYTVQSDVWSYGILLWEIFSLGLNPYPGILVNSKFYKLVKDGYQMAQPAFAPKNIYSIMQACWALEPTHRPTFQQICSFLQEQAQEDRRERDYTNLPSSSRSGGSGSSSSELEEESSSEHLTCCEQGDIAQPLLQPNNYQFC
# [7] = Selectivity index, ratio of IC50 for human HS27 cells to IC50 for human SN12C cells
# [8] = Selectivity index, ratio of IC50 for human HS27 cells to IC50 for human Malme-3M cells
# [9] = Selectivity index, ratio of IC50 for human WI-38 cells to IC50 for human MOLT-4 cells
# [10] = Selectivity index, ratio of IC50 for human HS27 cells to IC50 for human HT-29 cells
# [11] = Selectivity index, ratio of IC50 for human WI-38 cells to IC50 for human NCI-H460 cells; type: toxicity; settings: WI-38 cells and NCI-H460 cells, read-out: Ratio IC50
# SN12C = assay: Antiproliferative activity against human SN12C cells assessed as cell growth inhibition; type: functional
# [12] = Selectivity index, ratio of IC50 for human HS27 cells to IC50 for human CCRF-CEM cells
# [13] = Selectivity index, ratio of IC50 for human WI-38 cells to IC50 for human SN12C cells
# [14] = Selectivity index, ratio of IC50 for human WI-38 cells to IC50 for human Hs-578T cells
# [15] = Selectivity index, ratio of IC50 for human HS27 cells to IC50 for human MDA-MB-468 cells
# [16] = Selectivity index, ratio of IC50 for human WI-38 cells to IC50 for human DU-145 cells
# [17] = Cytotoxicity against human WI-38 cells assessed as reduction in cell growth measured after 48 hrs by MTT assay; type: toxicity, cell-based
# K562 = assay: Antiproliferative activity against human K562 cells assessed as cell growth inhibition; type: functional
# DU-145 = assay: Antiproliferative activity against human DU-145 cells assessed as cell growth inhibition; type: functional
# [18] = Selectivity index, ratio of IC50 for human WI-38 cells to IC50 for human OVCAR-3 cells
# SF-539 = assay: Antiproliferative activity against human SF-539 cells assessed as cell growth inhibition; type: functional
# Hep 3B2 [19] = assay: Cell cycle arrest in human Hep3B cells assessed as downregulation of cyclin D1 expression at 3.38 uM measured after 48 hrs by Western blot analysis; type: functional, cell-based
# [20] = Selectivity index, ratio of IC50 for human HS27 cells to IC50 for human K562 cells
# [21] = Selectivity index, ratio of IC50 for human WI-38 cells to IC50 for human SW-620 cells
# MOLT-4 = assay: Antiproliferative activity against human MOLT-4 cells assessed as cell growth inhibition; type: functional
# [22] = Selectivity index, ratio of IC50 for human WI-38 cells to IC50 for human PC-3 cells; type: toxicity; settings: WI-38 cells and PC-3 cells, read-out: Ratio IC50
# [23] = Selectivity index, ratio of IC50 for human WI-38 cells to IC50 for human HCT-116 cells; type: toxicity; settings: WI-38 cells and HCT-116 cells, read-out: Ratio IC50
# Hep 3B2 [24] = assay: cells; settings: Homo sapiens, Hep3B, 48 h
# NCI-H460 = assay: Antiproliferative activity against human NCI-H460 cells assessed as cell growth inhibition; type: functional
# Malme-3M = assay: Antiproliferative activity against human Malme-3M cells assessed as cell growth inhibition; type: functional
# [25] = Selectivity index, ratio of IC50 for human HS27 cells to IC50 for human COLO 205 cells
# Hep 3B2 [26] = assay: Cell cycle arrest in human Hep3B cells assessed as upregulation of cyclin B1 expression at 0.5 x IC50 to IC50 measured after 48 hrs by Western blot analysis; type: functional, cell-based
# A549 = assay: Antiproliferative activity against human A549 cells assessed as cell growth inhibition; type: functional
# LOX IMVI = assay: Antiproliferative activity against human LOX IMVI cells assessed as cell growth inhibition; type: functional
# Hep 3B2 [27] = assay: Induction of apoptosis in human Hep3B cells assessed as increase in cleaved caspase-3 expression at 3.38 uM measured after 48 hrs by Western blot analysis relative to control; type: functional
# [28] = Selectivity index, ratio of IC50 for human WI-38 cells to IC50 for human SK-MEL-28 cells
# [29] = Selectivity index, ratio of IC50 for human HS27 cells to IC50 for human MOLT-4 cells
# [30] = Selectivity index, ratio of IC50 for human HS27 cells to IC50 for human SF-295 cells
# HCT-15 = assay: Antiproliferative activity against human HCT-15 cells assessed as cell growth inhibition; type: functional
# OVCAR-3 = assay: Antiproliferative activity against human OVCAR-3 cells assessed as cell growth inhibition; type: functional
# [31] = Selectivity index, ratio of IC50 for human HS27 cells to IC50 for human 786-0 cells
# [32] = Selectivity index, ratio of IC50 for human WI-38 cells to IC50 for human SF-295 cells
# [33] = Selectivity index, ratio of IC50 for human WI-38 cells to IC50 for human MDA-MB-435 cells
# [34] = Selectivity index, ratio of IC50 for human WI-38 cells to IC50 for human LOX IMVI cells
# [35] = Selectivity index, ratio of IC50 for human WI-38 cells to IC50 for human HCT-15 cells
structure (smiles),measurement,setting,value
CCN1CCN(c2ccc(NC(=O)Nc3ccc(-c4cc(C(=O)NC(C)C)c5ncccc5n4)cc3)cc2C(F)(F)F)CC1,GI50,COLO 205,0.93 µM
same,TGI,COLO 205,2.71 µM
same,selectivity ratio,[1],15.4
same,fold change (FC),Hep 3B2 [2],27
same,Ratio IC50,[3],10.52
same,GI50,HT-29,0.67 µM
same,TGI,HT-29,1.32 µM
same,Ratio IC50,[4],8.71
same,Ratio IC50,[5],11.2
same,IC50,[6],0.993 µM
same,Ratio IC50,[7],5.45
same,Ratio IC50,[8],4.47
same,Ratio IC50,[9],15.43
same,Ratio IC50,[10],9.77
same,selectivity ratio,[11],6.4
same,GI50,SN12C,0.67 µM
same,TGI,SN12C,1.38 µM
same,Ratio IC50,[12],8
same,Ratio IC50,[13],10.52
same,Ratio IC50,[14],10.06
same,Ratio IC50,[15],5.22
same,Ratio IC50,[16],21.6
same,IC50 at 48 h,[17],16.2 µM
same,GI50,K562,1 µM
same,TGI,K562,34.5 µM
same,GI50,DU-145,0.75 µM
same,TGI,DU-145,1.58 µM
same,Ratio IC50,[18],5.89
same,GI50,SF-539,0.53 µM
same,TGI,SF-539,1.02 µM
same,Activity,Hep 3B2 [19],Active
same,Ratio IC50,[20],8
same,Ratio IC50,[21],18.84
same,TGI,MOLT-4,30.6 µM
same,selectivity ratio,[22],21.6
same,selectivity ratio,[23],18.8
same,IC50,Hep 3B2 [24],1.69 µM
same,GI50,NCI-H460,0.62 µM
same,TGI,NCI-H460,1.18 µM
same,GI50,Malme-3M,0.58 µM
same,TGI,Malme-3M,1.05 µM
same,Ratio IC50,[25],9.77
same,Activity,Hep 3B2 [26],inactive
same,TGI,A549,5.77 µM
same,GI50,LOX IMVI,0.56 µM
same,TGI,LOX IMVI,1.05 µM
same,fold change (FC),Hep 3B2 [27],473.5
same,Ratio IC50,[28],8.62
same,Ratio IC50,[29],8
same,Ratio IC50,[30],4.52
same,GI50,HCT-15,0.67 µM
same,TGI,HCT-15,1.35 µM
same,GI50,OVCAR-3,0.64 µM
same,TGI,OVCAR-3,1.36 µM
same,Ratio IC50,[31],5.45
same,Ratio IC50,[32],8.71
same,Ratio IC50,[33],8.62
same,Ratio IC50,[34],8.62
same,Ratio IC50,[35],18.84
